Literature values as cited in patent publication US20170368135A1, “HERBAL DRUG COMPOSITION CONTAINING PROBIOTIC AND OPTIONALLY PREBIOTIC AND/OR ACTIVE PHARMACEUTICAL INGREDIENT” (VITALIVA, LLC, priority 2016, published 2017).

Key:
alcoholic liver disease = conditions: in vivo

With COc1cc(/C=C/C(=O)CC(=O)/C=C/c2ccc(O)c(OC)c2)ccc1O [Curcumin] as the molecule, how does the “physiological changes induced by alcohol” value (alcoholic liver disease) read?
Its value is “dietary spice turmeric, shows that curcimin administration prevented”.

And the “endotoxin-mediated activation of NF-κB” value (NF-κB in Kupffer cells)?
The value was “phsyciological changes induced by alcohol. Curcumin blocks”.

And the “expression of cytokines, chemokines, COX-2, and iNOS” value (NF-κB in Kupffer cells; Kupffer cells)?
The value was “endotoxin-mediated activation of NF-κB and suppresses the expression”.
